Patent US7557144B1, “Modulation of protein expression using carbocyclic aryl alkenoic acid derivatives” (The Johns Hopkins University, priority 2000, dated 2009)

Columns and labels:
CFTR = settings: homozygous ΔF508 patients taking the drug for 1 week; Rubenstein et al. 1998; cited from earlier work
Hsp70 = Hsp70 immunoblot of IB3-1 lysates; assay type: cell-based, human; settings: IB3-1 cells
Procedure: 3. Immunoblot analysis. Whole cell lysates were prepared by solubilization with 2% SDS at 95° C. Protein concentration in the lysates was determined using the Bio-Rad DC assay reagents with bovine plasma g-globulin as a standard (Bio-Rad Laboratories, Hercules, Calif.). Equal amounts of protein was resolved on 5, 7, 8, or 9% SDS-polyacrylamide gels. Proteins were transferred to nitrocellulose, and immunodetection was performed as previously described (25). Nonspecific binding was blocked by incubation of the nitrocellulose with 2% gelatin or 10% nonfat day milk. Primary antisera and secondary antibodies were applied in buffer containing 0.4% BSA overnight at 4° C. and for 1 h at room temperature, respectively. Detection of immunoreactivity was performed with the enhanced chemiluminescence reagent (ECL, Amer-sham) and fluorography. Recombinant bovine Hsc70 ([…]) was purchased from Stressgen Biotechnologies for use in constructing a standard curve of Hsc70 immunoreactivity. Immunoblots containing the bovine Hsc70 were probed with the Hsc70-specific polyclonal antiserum.
Whether 4-PBA would regulate expression of a number of other molecular chaperones in IB3-1 cells (FIG. 2) was assessed next. […] Hsp90 is required for correct folding and function of a number of cellular proteins (16). […] Hsp70 (Hsp72) expression is induced by heat shock and the presence of denatured proteins within the eukaryotic cell (16). In Escherichia coli, the Hsp70 homologue DnaK and the Hsp40 homologue DnaJ act to promote protein folding (16). Hdj2 is the member of the Hsp40 family that specifically interacts with and regulates the ATPase activity of Hsc70. Hdj2 also interacts with CFTR during CFTR translation (26).
FIGS. 2A-2E are more specifically explained as follows. […] IB3-1 cells were treated as described for FIG. 1. Immunoblotting with 5 μg of IB3-1 SDS lysate protein was performed as described in the foregoing General Comments.
FIGS. 5A-C are explained in more detail as follows. […] A: IB3-1 cells were incubated at 37° C. for 2 days under indicated conditions. Cellular homogenates were prepared in 2% SDS as described in METHODS, and 5 μg of total cellular protein were analyzed by immunoblot for Hsc70 using rabbit polyclonal antiserum, Hsp90, Hsp70, Hsp40 as described above under General Comments. Con, control. B and C: densitometric analysis of Hsc70 expression (B) and Hsp90, Hsp70, and Hsp40 expression (C) was performed as described for FIG. 1. B: means 6 SE of density in 4 independent experiments.

[1] = set-up: fraction of administered 4-PBA excreted as PAG in the urine: unit not given here; settings: cited from earlier work
Hsc70-CFTR complexes = biological target: T1, Hsc70-CFTR complexes (Homo sapiens, UniProt P11142+P13569, DEL508-508); test: Immunoprecipitation of Hsc70-CFTR complexes from untreated IB3-1 cells with 4-PBA in lysis and wash buffers; assay type: binding; settings: 1 mM 4-PBA added to RIPA lysis and wash buffers
T1 construct: endogenous in cells; host or cells: IB3-1 (RIPA lysate, immunoprecipitated with anti-Hsc70 serum)
Procedure: 5. Immunoprecipitation. Cultured cells were solubilized by incubation for 1 h at 4° C. in RIPA[50 mM Tris-Cl (pH8.0), 150 mM NaCl, 1% Triton X-100 (Bio-Rad or Fisher Scientific), 1% sodium deoxycholate (Sigma), and protease inhibitor cocktail (Sigma; used at 1:1,000 final dilution)]. Solubilized cells were then homogenized by passage 10 times through a 20-gauge needle and cleared by centrifugation at 15,000 g for 20 min at 4° C. Protein concentration was determined using the Bio-Rad DC reagents as above. Polyclonal Hsc70 antiserum was added to the cell lysates (2 μl/250 μg total protein, with equal amounts of protein at equal final concentrations for each condition within an experiment) and incubated at 4° C. over-night with gentle agitation. Immune complexes were captured with protein A-Sepharose 4B (Pharmacia Biotechnologies, Piscataway, N.J.) that had been preabsorbed with BSA for 45 min at 4° C. […]
The decrease in CFTR recovered by immunoprecipitation in proportion to the decrease in Hsc70 is consistent with 4-PBA not directly influencing the binding affinity of CFTR and Hsc70. This was further assessed by immunoprecipitating Hsc70-CFTR complexes from untreated IB3-1 cells either with or without 1 mM 4-PBA added to the RIPA lysis and wash buffers.

T1 sequence (P13569 with tags, fused parts or gaps DEL508-508): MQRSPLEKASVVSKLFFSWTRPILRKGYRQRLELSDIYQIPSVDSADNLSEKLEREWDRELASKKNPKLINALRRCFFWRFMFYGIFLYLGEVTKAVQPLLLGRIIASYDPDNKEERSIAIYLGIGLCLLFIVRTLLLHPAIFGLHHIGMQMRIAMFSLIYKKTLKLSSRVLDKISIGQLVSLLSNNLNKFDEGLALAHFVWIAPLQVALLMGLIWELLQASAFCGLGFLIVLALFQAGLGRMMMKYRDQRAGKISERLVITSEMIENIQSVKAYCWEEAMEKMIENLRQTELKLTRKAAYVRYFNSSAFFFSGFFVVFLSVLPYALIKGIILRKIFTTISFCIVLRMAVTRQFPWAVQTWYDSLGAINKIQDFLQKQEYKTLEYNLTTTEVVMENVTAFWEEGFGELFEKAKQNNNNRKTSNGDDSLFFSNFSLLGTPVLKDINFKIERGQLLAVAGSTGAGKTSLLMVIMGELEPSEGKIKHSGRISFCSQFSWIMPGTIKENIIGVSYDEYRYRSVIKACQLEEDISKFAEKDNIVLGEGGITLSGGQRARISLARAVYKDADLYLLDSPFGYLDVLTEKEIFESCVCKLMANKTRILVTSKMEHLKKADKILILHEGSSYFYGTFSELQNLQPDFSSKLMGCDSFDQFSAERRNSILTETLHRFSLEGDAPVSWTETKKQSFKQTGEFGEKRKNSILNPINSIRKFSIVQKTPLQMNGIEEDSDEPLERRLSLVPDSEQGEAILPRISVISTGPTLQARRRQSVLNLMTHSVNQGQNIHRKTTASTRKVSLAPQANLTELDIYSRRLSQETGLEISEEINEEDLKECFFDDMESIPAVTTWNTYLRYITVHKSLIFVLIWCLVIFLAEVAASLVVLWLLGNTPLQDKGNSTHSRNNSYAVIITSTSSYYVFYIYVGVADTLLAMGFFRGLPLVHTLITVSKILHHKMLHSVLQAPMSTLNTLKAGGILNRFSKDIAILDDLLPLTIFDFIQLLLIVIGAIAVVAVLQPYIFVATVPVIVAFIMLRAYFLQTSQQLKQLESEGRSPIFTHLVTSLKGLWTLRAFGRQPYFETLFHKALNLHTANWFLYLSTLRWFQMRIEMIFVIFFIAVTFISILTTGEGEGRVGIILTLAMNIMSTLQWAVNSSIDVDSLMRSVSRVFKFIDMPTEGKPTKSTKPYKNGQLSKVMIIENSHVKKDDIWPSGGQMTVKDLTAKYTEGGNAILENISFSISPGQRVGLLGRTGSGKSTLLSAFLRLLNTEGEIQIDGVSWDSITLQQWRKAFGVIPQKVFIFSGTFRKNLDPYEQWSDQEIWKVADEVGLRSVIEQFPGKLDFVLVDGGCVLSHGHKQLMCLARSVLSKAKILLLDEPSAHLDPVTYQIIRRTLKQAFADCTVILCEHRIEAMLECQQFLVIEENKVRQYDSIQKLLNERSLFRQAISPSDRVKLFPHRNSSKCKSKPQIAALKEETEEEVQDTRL
T1 sequence (P11142 2-646 limits assumed, stated change not applied): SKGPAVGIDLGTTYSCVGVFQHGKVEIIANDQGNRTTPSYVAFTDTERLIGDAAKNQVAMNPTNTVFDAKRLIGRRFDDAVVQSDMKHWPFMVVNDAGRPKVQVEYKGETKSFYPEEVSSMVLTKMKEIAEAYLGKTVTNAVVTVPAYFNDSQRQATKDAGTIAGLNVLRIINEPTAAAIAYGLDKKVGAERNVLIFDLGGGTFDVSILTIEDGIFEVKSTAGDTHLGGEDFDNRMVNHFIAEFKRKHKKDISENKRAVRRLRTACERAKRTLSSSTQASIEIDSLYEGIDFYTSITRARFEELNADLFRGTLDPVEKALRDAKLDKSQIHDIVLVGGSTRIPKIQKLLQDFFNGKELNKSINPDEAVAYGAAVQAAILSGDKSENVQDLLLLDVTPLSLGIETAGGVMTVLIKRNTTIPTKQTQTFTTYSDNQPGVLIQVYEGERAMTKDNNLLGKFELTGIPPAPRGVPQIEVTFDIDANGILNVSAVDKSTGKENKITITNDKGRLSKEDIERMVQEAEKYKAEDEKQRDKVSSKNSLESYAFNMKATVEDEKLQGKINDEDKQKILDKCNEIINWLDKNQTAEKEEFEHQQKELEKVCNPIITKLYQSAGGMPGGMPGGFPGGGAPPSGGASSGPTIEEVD

SMILES: O=C(O)CCCc1ccccc1 [4-PBA, 4-phenylbutyric acid]
- chloride transport in nasal potential difference measurements (CFTR): increase chloride transport
- expression of Hsp70 (Hsp70; increasing concentrations of 4-PBA (Example 1)): did not affect
- Hsp70 expression (Hsp70; increasing concentrations of 4-phenylbutyrate (Example 11, FIG. 14)): induces Hsp70 in a dose-dependent manner
- fraction of administered 4-PBA excreted as PAG in the urine ([1]; in vivo): Ninety
- in vivo metabolic conversion ([1]; then conjugated with glutamine to phenacetylglutamine, excreted in urine (ref. 6)): rapidly and completely converted by β-oxidation to phenylacetate
- recovery of Hsc70 and associated CFTR (Hsc70-CFTR complexes): unaltered
